According to DBAASP:
In brackets after ≈: the same amount, converted by molar mass. Each block holds one compound with its values, some of them ahead of it.

Assays:
Assay in all cases: ≥ marks a high value that may be exact or a test limit, other limits are often not marked, values filed in µg/mL are converted to µM
[1] = tested on: Staphylococcus epidermidis
[2] = tested on: Pseudomonas aeruginosa H103
[3] = tested on: Escherichia coli UB1005
[4] = tested on: Staphylococcus aureus ATCC 25923
[5] = tested on: Salmonella enterica serovar Typhimurium
[6] = tested on: Pseudomonas aeruginosa 919
[7] = tested on: Pseudomonas aeruginosa PAO1
[8] = tested on: Pseudomonas aeruginosa 910
[9] = tested on: Candida albicans
[10] = tested on: Pseudomonas aeruginosa 253
[11] = tested on: Candida albicans ATCC 10231
[12] = tested on: Pseudomonas aeruginosa PA14
[13] = tested on: Enterococcus faecium E007
[14] = tested on: Staphylococcus aureus ATCC 29231
[15] = tested on: Staphylococcus aureus
[16] = tested on: Trichophyton rubrum ATCC 28189
[17] = tested on: Candida parapsilosis ATCC 22019
[18] = tested on: Escherichia coli
[19] = tested on: Candida albicans ATCC 24433
[20] = tested on: Candida albicans NCTC 1467
[21] = tested on: Escherichia coli NCTC 10418
[22] = tested on: Staphylococcus aureus NCTC 10788
[23] = tested on: Pseudomonas aeruginosa ATCC 27853
[24] = tested on: Staphylococcus aureus NCTC 12493
[25] = tested on: Klebsiella pneumoniae ATCC 43816
[26] = tested on: Enterococcus faecalis NCTC 12697
[27] = tested on: Escherichia coli ATCC 25922
[28] = tested on: Escherichia coli CCT 1371
[29] = tested on: Pseudomonas aeruginosa ATCC 15442
[30] = tested on: Staphylococcus saprophyticus
[31] = tested on: Staphylococcus aureus ATCC 6538
[32] = tested on: Bacillus subtilis CCT 2471
[33] = tested on: Acinetobacter baumannii ATCC 7978

MIC [1]: 1.07 µM (≈ 1.6 µg/mL)
MIC [2]: 4.01 µM (≈ 6 µg/mL)
MIC [3]: 1.07 µM (≈ 1.6 µg/mL)
MIC [4]: 8.03 µM (≈ 12 µg/mL)
MIC [5]: 4.01 µM (≈ 6 µg/mL)
MIC [6]: 8 µM (≈ 12 µg/mL)
MIC [7]: 8 µM (≈ 12 µg/mL)
MIC [8]: 16 µM (≈ 23.9 µg/mL)
MIC [9]: 8.03 µM (≈ 12 µg/mL)
MIC [10]: 16 µM (≈ 23.9 µg/mL)
Compound: CC[C@H](C)[C@H](NC(=O)[C@H](CCCN=C(N)N)NC(=O)[C@H](Cc1c[nH]c2ccccc12)NC(=O)[C@H](CCCN=C(N)N)NC(=O)[C@@H](N)C(C)C)C(=O)N[C@@H](CCCN=C(N)N)C(=O)N[C@H](C(=O)N[C@@H](C)C(=O)N[C@H](C(=O)N[C@H](C(=O)N[C@@H](CCCN=C(N)N)C(=O)N[C@@H](C)C(=O)O)[C@@H](C)CC)C(C)C)C(C)C [VRWRIRVAVIRA]

MIC [11]: 53.7 µM (≈ 128 µg/mL)
MIC [12]: 26.8 µM (≈ 64 µg/mL)
MIC [13]: ≥ 53.7 µM
MIC [14]: 13.1 µM (≈ 31.3 µg/mL)
Compound: CC[C@H](C)[C@H](NC(=O)[C@H](CCCCN)NC(=O)[C@H](CCCCN)NC(=O)[C@H](Cc1c[nH]c2ccccc12)NC(=O)[C@@H](NC(=O)[C@H](CCCCN)NC(=O)[C@H](Cc1c[nH]c2ccccc12)NC(=O)[C@@H](N)CC(C)C)[C@@H](C)CC)C(=O)N[C@@H](Cc1c[nH]c2ccccc12)C(=O)N[C@@H](CCCN=C(N)N)C(=O)N[C@H](C(=O)N[C@@H](Cc1c[nH]c2ccccc12)C(=O)N[C@@H](Cc1c[nH]c2ccccc12)C(=O)N[C@@H](CC(N)=O)C(=O)N[C@@H](Cc1c[nH]c2ccccc12)C(=O)N[C@@H](CCCN=C(N)N)C(=O)O)C(C)C [LWKIWKKIWRVWWNWR]

MIC [6]: ≥ 32 µM
MIC [7]: 4 µM (≈ 7.63 µg/mL)
MIC [8]: 8 µM (≈ 15.3 µg/mL)
MIC [10]: 16 µM (≈ 30.5 µg/mL)
Compound: CC[C@H](C)[C@H](NC(=O)[C@@H](N)Cc1ccccc1)C(=O)N[C@@H](CCCCN)C(=O)N[C@@H](Cc1c[nH]c2ccccc12)C(=O)N[C@@H](CCCN=C(N)N)C(=O)N[C@@H](Cc1ccccc1)C(=O)N[C@@H](CCCN=C(N)N)C(=O)N[C@@H](CCCN=C(N)N)C(=O)N[C@@H](Cc1c[nH]c2ccccc12)C(=O)N[C@@H](CCCCN)C(=O)N[C@@H](CCCCN)C(=O)N[C@@H](CCCN=C(N)N)C(=O)N[C@H](C(N)=O)[C@@H](C)O [FIKWRFRRWKKRT]

MIC [15]: > 315 µM
MIC [16]: ≥ 315 µM
MIC [17]: ≥ 315 µM
MIC [18]: > 315 µM
MIC [19]: ≥ 315 µM
Compound: CC[C@H](C)[C@H](NC(=O)[C@H](CC(C)C)NC(=O)[C@H](CO)NC(=O)[C@@H](N)CCCN=C(N)N)C(=O)N[C@H](C(=O)N[C@@H](Cc1cnc[nH]1)C(=O)N[C@@H](CCC(N)=O)C(=O)N[C@@H](CCCN=C(N)N)C(=O)N[C@@H](CC(C)C)C(=O)N[C@@H](Cc1ccccc1)C(N)=O)C(C)C [RSLIVHQRLF]

MIC [20]: ≥ 128 µM
MIC [21]: ≥ 64 µM
MIC [22]: ≥ 128 µM
MIC [23]: > 128 µM
MIC [24]: ≥ 128 µM
MIC [25]: ≥ 128 µM
Compound: CC[C@H](C)[C@@H]1NC(=O)[C@H](CC(C)C)NC(=O)[C@@H](NC(=O)[C@@H](NC(=O)[C@@H](NC(=O)[C@H](C)NC(=O)CNC(=O)[C@H](CC(C)C)NC(=O)[C@H](C)NC(=O)[C@@H](N)Cc2ccccc2)C(C)C)[C@@H](C)O)CSSC[C@@H](C(=O)N[C@@H](CCCCN)C(=O)N[C@H](C(=O)N[C@@H](CC(C)C)C(=O)N2CCC[C@H]2C(=O)N[C@@H](CCCCN)C(=O)N[C@@H](CC(C)C)C(=O)N[C@@H](Cc2ccccc2)C(=O)O)C(C)C)NC(=O)[C@H](CCCCN)NC(=O)[C@H]([C@@H](C)O)NC(=O)[C@H](CCCN=C(N)N)NC1=O [FALGAVTCLIRTKCKVLPKLF]

MIC [6]: 16 µM (≈ 30.5 µg/mL)
MIC [7]: 2 µM (≈ 3.81 µg/mL)
MIC [8]: 4 µM (≈ 7.62 µg/mL)
MIC [10]: 4 µM (≈ 7.62 µg/mL)
Compound: CC[C@H](C)[C@H](N)C(=O)N[C@@H](CC(C)C)C(=O)N[C@@H](CCCCN)C(=O)N[C@@H](Cc1c[nH]c2ccccc12)C(=O)N[C@@H](CCCCN)C(=O)N[C@H](C(=O)N[C@@H](CCCCN)C(=O)N[C@@H](Cc1c[nH]c2ccccc12)C(=O)N[C@@H](Cc1c[nH]c2ccccc12)C(=O)N[C@@H](CCCCN)C(=O)N[C@@H](Cc1c[nH]c2ccccc12)C(=O)N[C@@H](Cc1ccccc1)C(=O)N[C@@H](CCCN=C(N)N)C(N)=O)[C@@H](C)O [ILKWKTKWWKWFR]

MIC [20]: ≥ 64 µM
MIC [21]: 8 µM (≈ 21.8 µg/mL)
MIC [26]: ≥ 32 µM
MIC [22]: 8 µM (≈ 21.8 µg/mL)
MIC [23]: 32 µM (≈ 87.2 µg/mL)
MIC [24]: 16 µM (≈ 43.6 µg/mL)
MIC [25]: ≥ 32 µM
Compound: CSCC[C@H](NC(=O)[C@H](CCC(=O)O)NC(=O)[C@H](CCCCN)NC(=O)[C@H](CC(C)C)NC(=O)[C@H](CCCCN)NC(=O)CNC(=O)[C@H](Cc1c[nH]c2ccccc12)NC(=O)[C@H](CC(C)C)NC(=O)[C@@H](N)CO)C(=O)N[C@@H](CC(C)C)C(=O)N[C@@H](C)C(=O)N[C@@H](C)C(=O)N[C@@H](C)C(=O)NCC(=O)N[C@@H](CCCCN)C(=O)N[C@@H](C)C(=O)N[C@H](C(=O)N[C@@H](C)C(=O)N[C@@H](CC(N)=O)C(=O)N[C@@H](C)C(=O)N[C@H](C(=O)N[C@@H](CC(N)=O)C(=O)NCC(=O)N[C@@H](CC(C)C)C(=O)N[C@@H](C)C(=O)N[C@@H](CC(N)=O)C(=O)N[C@@H](CCC(N)=O)C(N)=O)C(C)C)C(C)C [SLWGKLKEMLAAAGKAVANAVNGLANQ]

MIC [27]: > 84.5 µM
MIC [28]: ≥ 84.5 µM
MIC [1]: ≥ 84.5 µM
MIC [29]: ≥ 84.5 µM
MIC [4]: > 84.5 µM
MIC [30]: ≥ 84.5 µM
MIC [31]: > 84.5 µM
MIC [9]: > 84.5 µM
MIC [32]: ≥ 84.5 µM
Compound: CC[C@H](C)[C@H](NC(=O)CNC(=O)[C@H](CCCCN)NC(=O)[C@H](C)NC(=O)[C@@H](NC(=O)[C@H](CCCCN)NC(=O)[C@@H](N)CC(C)C)[C@@H](C)CC)C(=O)N[C@H](C(=O)N[C@@H](CCCCN)C(=O)N[C@@H](CO)C(=O)N[C@@H](CC(C)C)C(=O)O)[C@@H](C)CC [LKIAKGIIKSL]

Compound: CC[C@H](C)[C@H](NC(=O)[C@H](CCCCN)NC(=O)[C@H](CCCCN)NC(=O)[C@@H](N)CC(C)C)C(=O)NCC(=O)N[C@@H](CCCCN)C(=O)N[C@@H](CCCCN)C(=O)N[C@H](C(=O)N[C@@H](Cc1c[nH]c2ccccc12)C(=O)N[C@@H](CCCN=C(N)N)C(=O)N[C@H](C(=O)NCC(=O)O)C(C)C)[C@@H](C)CC [LKKIGKKIWRVG]
MIC [12]: ≥ 89.8 µM
MIC [33]: ≥ 89.8 µM
MIC [13]: ≥ 89.8 µM
MIC [14]: ≥ 89.8 µM

MIC [15]: > 280 µM
MIC [16]: ≥ 280 µM
MIC [17]: ≥ 280 µM
MIC [18]: > 280 µM
MIC [19]: ≥ 280 µM
Compound: CC[C@H](C)[C@H](NC(=O)[C@H](CC(C)C)NC(=O)[C@H](C)NC(=O)[C@H](CO)NC(=O)[C@H](CCCN=C(N)N)NC(=O)[C@@H](N)CO)C(=O)N[C@H](C(=O)N[C@@H](Cc1cnc[nH]1)C(=O)N[C@@H](CCC(N)=O)C(=O)N[C@@H](CCCN=C(N)N)C(=O)N[C@@H](CC(C)C)C(=O)N[C@@H](Cc1ccccc1)C(N)=O)C(C)C [SRSALIVHQRLF]
